Laboratory results: patent US10167299B2, “1-(3-aminopropyl) substituted cyclic amine compounds, preparation method therefor, and pharmaceutical compositions and uses thereof” (SHANGHAI INSTITUTE OF MATERIA MEDICA, CHINESE ACADEMY OF …, priority 2013, dated 2019)
≈ marks a conversion by molar mass, not a printed value. Read-outs that look alike come from different tables or passages of the source.

Tests used:
[1] = Cytotoxicity (CC50) in TZM-bl cells; type: cell-based; conditions: human
HIV-1SF162 virus strain = experiment: Inhibition activity on TZM-bl cells infected with HIV-1SF162; conditions: for EC50: Human immunodeficiency virus 1, TZM-bl; for therapeutic index (TI): TZM-bl cells infected with HIV-1SF162
CCR5 = CCR5 (Homo sapiens (Human), UniProt P51681); experiment: Calcium flux inhibition experiment; type: cell-based; conditions: for calcium influx inhibition effect in words, versus positive control compounds: conclusion from Table 1
From the text: Experiment apparatus: FlexStation II
Experiment materials: HEK293/CCR5-Gα16 cell line, Fluo-4calcium dye (fluorescent-4 calcium ion dye) and FlexStation instrument.
Experiment theory: Activation of the receptor can cause the activation of Gα16 protein, thereby activating phospholipase C (PLC) to generate IP3 and DAG by establishing CCR5 and Ga16 co-transfected cell line. IP3 can bind to IP3 receptors on the endoplasmic reticulum and mitochondria in a cell, which can cause the release of intracellular calcium. Thus, determination of changes in intracellular calcium can be used as a method to detect CCR5 activation state. Fluo-4/AM is a fluorescent probe indicator for calcium used to measure calcium ion. As a non-polar lipid-soluble compound, after it enters into cells, AM group is dissociated to release Fluo-4 under the effect of cell lipolysis enzyme. Fluo-4 is a polar molecule and not easy to go through the lipid bilayer membrane, therefore it can stay within the cells for a long time. Ultimately, the level of activated Ga protein can be reflected by measuring the excited fluorescence intensity. If the screened compound can activate CCR5, it can greatly increase the calcium flux reaction; on the contrary, if the screened compound can antagonize CCR5, it can greatly reduce calcium flux reaction.
1. HEK293 cells which can stably express CCR5 were inoculated in a 96-well plate and incubated overnight.
2. The medium in each well into which cells were innoculated was removed and 40 μl/well of freshly prepared dye was added. The plate was placed in a 37° C. incubator and incubated for 40 minutes at constant temperature.
3. The medicament to be determined was diluted with calcium buffer to eight concentration gradients, which is 1×10^−4 M, 1×10^−5 M, 1×10^−6 M, 1×10^−7 M, 1×10^−8 M, 1×10^−9 M, 1×10^−10 M, and 1×10^−11 M, respectively, and homogeneously mixed.
4. The dye was removed. Freshly prepared calcium buffer was used to wash for one time, 50 μl of calcium buffer was added.
5. FlexStation II was used for detection. 25 μl of calcium buffer containing the medicament to be determined was added automatically from the 15th second.

[2] = TZM-bl cells (Table 3), read-out: CC50
[3] = HEK293/CCR5-Gα16 cell line, calcium flux, read-out: CCR5 IC50

Chain of CCR5 (P51681 whole entry): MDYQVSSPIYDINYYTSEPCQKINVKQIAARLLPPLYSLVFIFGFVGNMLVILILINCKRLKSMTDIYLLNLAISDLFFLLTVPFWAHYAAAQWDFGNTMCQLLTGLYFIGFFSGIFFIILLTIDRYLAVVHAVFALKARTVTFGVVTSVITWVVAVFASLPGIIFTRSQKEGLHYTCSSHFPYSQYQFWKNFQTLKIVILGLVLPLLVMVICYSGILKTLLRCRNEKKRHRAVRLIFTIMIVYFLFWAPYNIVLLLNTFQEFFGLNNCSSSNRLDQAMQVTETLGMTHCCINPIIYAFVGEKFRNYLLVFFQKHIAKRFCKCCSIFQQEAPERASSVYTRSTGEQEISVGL

SMILES	EC50 (HIV-1SF162 virus strain) [µg/mL]	IC50 (CCR5; [3]) [nM]	calcium influx inhibition effect in words, versus positive control compounds (CCR5)	also measured
Cc1nnc(C(C)C)n1C1CC2CCC(C1)N2CC[C@H](NC(=O)C1CCC(F)(F)CC1)c1csc2ccccc12 (stereo partly drawn) [Compound 27, 4,4-difluoro-N-[(1S)-3-[exo-3-(3-isopropyl-5-methyl-4H-1,2,4-triazol-4-yl)-8-azabicyclo[3.2.1]octane-8-yl]-1-(benzothiophen-3-yl)propyl]cyclohexane-1-carboxamide]	0.511 (≈ 0.897 µM)	–	–	CC50 at 3 days [1]: 96.1 µg/mL (≈ 169 µM); therapeutic index (TI) (HIV-1SF162 virus strain): 188.14
CC(=O)N[C@@H](CCN1C2CCC1CC(n1c(C)nnc1C(C)C)C2)c1csc2ccccc12 (stereo partly drawn) [Compound 28, N-[(1S)-3-[exo-3-(3-isopropyl-5-methyl-4H-1,2,4-triazol-4-yl)-8-azabicyclo[3.2.1]octane-8-yl]-1-(benzothiophen-3-yl)propyl]acetamide]	> 40	–	–	CC50 at 3 days [1, 2]: > 200 µg/mL
Cc1ccc([C@H](CCN2C3CCC2CC(n2c(C)nnc2C(C)C)C3)NC(=O)C2CCCCC2)s1 (stereo partly drawn) [Compound 30, N-[(1S)-3-[exo-3-(3-isopropyl-5-methyl-4H-1,2,4-triazol-4-yl)-8-azabicyclo[3.2.1]octane-8-yl]-1-(5-methylthiophen-2-yl)propyl]cyclohexane-1-carboxamide]	0.06 (≈ 0.121 µM)	24	–	CC50 [1]: > 200 µg/mL; therapeutic index (TI) (HIV-1SF162 virus strain): >2150.54
Cc1ccc([C@H](CCN2C3CCC2CC(n2c(C)nnc2C(C)C)C3)NC(=O)C2CCCC2)s1 (stereo partly drawn) [Compound 31, N-[(1S)-3-[exo-3-(3-isopropyl-5-methyl-4H-1,2,4-triazol-4-yl)-8-azabicyclo[3.2.1]octane-8-yl]-1-(5-methylthiophen-2-yl)propyl]cyclopentane-1-carboxamide]	0.033 (≈ 0.0682 µM)	9.76	comparable to the positive control compounds	CC50 [1]: > 200 µg/mL; therapeutic index (TI) (HIV-1SF162 virus strain): >5714.29
Cc1ccc([C@H](CCN2C3CCC2CC(n2c(C)nnc2C(C)C)C3)NC(=O)c2ccccc2)s1 (stereo partly drawn) [Compound 32, N-[(1S)-3-[exo-3-(3-isopropyl-5-methyl-4H-1,2,4-triazol-4-yl)-8-azabicyclo[3.2.1]octane-8-yl]-1-(5-methylthiophen-2-yl)propyl]benzamide]	> 40	8.35	comparable to the positive control compounds	CC50 [1]: > 200 µg/mL
Cc1ccc([C@H](CCN2C3CCC2CC(n2c(C)nnc2C(C)C)C3)NC(=O)Cc2ccc(F)cc2)s1 (stereo partly drawn) [Compound 33, 4-fluoro-N-[(1S)-3-[exo-3-(3-isopropyl-5-methyl-4H-1,2,4-triazol-4-yl)-8-azabicyclo[3.2.1]octane-8-yl]-1-(5-methylthiophen-2-yl)propyl]phenylacetamide]	0.147 (≈ 0.281 µM)	25	–	CC50 [1]: > 200 µg/mL; therapeutic index (TI) (HIV-1SF162 virus strain): >328.95
Cc1nnc(C(C)C)n1C1CC2CCC(C1)N2CC[C@H](NC(=O)C1CCCCC1)c1ccc(F)nc1 (stereo partly shown) [Compound 35]	> 40	270	–	CC50 [1]: > 200 µg/mL
Cc1nnc(C(C)C)n1C1CC2CCC(C1)N2CC[C@H](NC(=O)C1CCCC1)c1ccc(F)nc1 (stereo partly shown) [Compound 36]	> 40	31.8	–	CC50 [1, 2]: > 200 µg/mL
Cc1nnc(C(C)C)n1C1CC2CCC(C1)N2CC[C@H](NC(=O)C1CCC(F)(F)CC1)c1ccc(F)s1 (stereo partly drawn) [Compound 37, 4,4-difluoro-N-[(1S)-3-[exo-3-(3-isopropyl-5-methyl-4H-1,2,4-triazol-4-yl)-8-azabicyclo[3.2.1]octane-8-yl]-1-(5-fluorothiophen-2-yl)propyl]cyclohexane-1-carboxamide]	0.647 (≈ 1.2 µM)	–	–	CC50 at 3 days [1]: > 200 µg/mL; therapeutic index (TI) (HIV-1SF162 virus strain): >309.12
Cc1nnc(C(C)C)n1C1CC2CCC(C1)N2CC[C@H](NC(=O)Cn1ncnn1)c1ccc(F)s1 (stereo partly drawn) [Compound 157, N-[(1S)-3-[exo-3-(3-isopropyl-5-methyl-4H-1,2,4-triazol-4-yl)-8-azabicyclo[3.2.1]octane-8-yl]-1-(5-fluorothiophen-2-yl)propyl]-2-(2H-tetrazol-2-yl)acetamide]	–	1.23	better than the positive control compounds	–
Cc1nnc(C(C)C)n1C1CC2CCC(C1)N2CC[C@H](NC(=O)Cc1nnn[nH]1)c1cccs1 (stereo partly drawn) [Compound 158, N-[(1S)-3-[exo-3-(3-isopropyl-5-methyl-4H-1,2,4-triazol-4-yl)-8-azabicyclo[3.2.1]octane-8-yl]-1-(thiophen-2-yl)propyl]-2-(1H-tetrazol-5-yl)acetamide]	–	14.9	–	–
Cc1ccc([C@H](CCN2C3CCC2CC(n2c(C)nnc2C(C)C)C3)NC(=O)Cc2nnn[nH]2)s1 (stereo partly drawn) [Compound 159, N-[(1S)-3-[exo-3-(3-isopropyl-5-methyl-4H-1,2,4-triazol-4-yl)-8-azabicyclo[3.2.1]octane-8-yl]-1-(5-methylthiophen-2-yl)propyl]-2-(1H-tetrazol-5-yl)acetamide]	–	8.76	comparable to the positive control compounds	–
COc1ccc([C@H](CCN2C3CCC2CC(n2c(C)nnc2C(C)C)C3)NC(=O)Cc2nnn[nH]2)s1 (stereo partly drawn) [Compound 160, N-[(1S)-3-[exo-3-(3-isopropyl-5-methyl-4H-1,2,4-triazol-4-yl)-8-azabicyclo[3.2.1]octane-8-yl]-1-(5-methoxythiophen-2-yl)propyl]-2-(1H-tetrazol-5-yl)acetamide]	–	–	better than the positive control compounds	IC50 (CCR5): 1.34 nM
Cc1nnc(C(C)C)n1C1CC2CCC(C1)N2CC[C@H](NC(=O)Cc1nnn[nH]1)c1ccc(C#N)s1 (stereo partly drawn) [Compound 161, N-[(1S)-3-[exo-3-(3-isopropyl-5-methyl-4H-1,2,4-triazol-4-yl)-8-azabicyclo[3.2.1]octane-8-yl]-1-(5-cyanothiophen-2-yl)propyl]-2-(1H-tetrazol-5-yl)acetamide]	–	–	comparable to the positive control compounds	IC50 (CCR5): 8.36 nM
Cc1nnc(C(C)C)n1C1CC2CCC(C1)N2CC[C@H](NC(=O)Cc1nnn[nH]1)c1ccc(Cl)s1 (stereo partly drawn) [Compound 162, N-[(1S)-3-[exo-3-(3-isopropyl-5-methyl-4H-1,2,4-triazol-4-yl)-8-azabicyclo[3.2.1]octane-8-yl]-1-(5-chlorothiophen-2-yl)propyl]-2-(1H-tetrazol-5-yl)acetamide]	–	1.85	better than the positive control compounds	–
Cc1nnc(C(C)C)n1C1CC2CCC(C1)N2CC[C@H](NC(=O)Cc1nnn[nH]1)c1ccc(F)s1 (stereo partly drawn) [Compound 163, N-[(1S)-3-[exo-3-(3-isopropyl-5-methyl-4H-1,2,4-triazol-4-yl)-8-azabicyclo[3.2.1]octane-8-yl]-1-(5-fluorothiophen-2-yl)propyl]-2-(1H-tetrazol-5-yl)acetamide]	–	13.3	–	–
COc1ccc([C@H](CCN2C3CCC2CC(n2c(C)nnc2C(C)C)C3)NC(=O)CC#N)s1 (stereo partly drawn) [Compound 166, N-[(1S)-3-[exo-3-(3-isopropyl-5-methyl-4H-1,2,4-triazol-4-yl)-8-azabicyclo[3.2.1]octane-8-yl]-1-(5-methoxythiophen-2-yl)propyl]-2-cyanoacetamide]	–	–	better than the positive control compounds	IC50 (CCR5): 6.54 nM
Cc1nnc(C(C)C)n1C1CC2CCC(C1)N2CC[C@H](NC(=O)CC#N)c1ccc(C#N)s1 (stereo partly drawn) [Compound 167, N-[(1S)-3-[exo-3-(3-isopropyl-5-methyl-4H-1,2,4-triazol-4-yl)-8-azabicyclo[3.2.1]octane-8-yl]-1-(5-cyanothiophen-2-yl)propyl]-2-cyanoacetamide]	–	–	–	IC50 (CCR5): 7.98 nM
Cc1nnc(C(C)C)n1C1CC2CCC(C1)N2CC[C@H](NC(=O)Cn1cnnn1)c1cccs1 (stereo partly drawn) [Compound 172, N-[(1S)-3-[exo-3-(3-isopropyl-5-methyl-4H-1,2,4-triazol-4-yl)-8-azabicyclo[3.2.1]octane-8-yl]-1-(thiophen-2-yl)propyl]-2-(1H-tetrazol-1-yl)acetamide]	–	9.38	better than the positive control compounds	–
CC(=O)N[C@@H](CCN1C2CCC1CC(n1c(C)nc3c1CCN(C(=O)C(C)C)C3)C2)c1cccc(F)c1 (stereo partly shown) [PF-232798, reference compound]	–	8.29	–	–
